Measurements reported in patent US20250326744A1, “PIPERAZINE DERIVATIVE OR SALT THEREOF, AND PHARMACEUTICAL COMPOSITION” (priority 2022, published 2025).
Counter-ions that a name gives are not always drawn.

Key:
S-3769 strain = assay: Combinational effect with antibacterial agent against Pseudomonas aeruginosa (Test Examples 2 and 4): S-3769 strain with AMK or GM at 1/4 MIC, EC99; assay type: cell-based; settings: for EC99, combinational effect with AMK, S-3769 strain / EC99, S-3769 strain, AMK: combined with AMK at 1/4 MIC; for EC99, combinational effect with AMK, S-3769 strain / EC99, combinational effect with GM, S-3769 strain: Test Example 4; for EC99, combinational effect with GM, S-3769 strain / EC99, S-3769 strain, GM: combined with GM at 1/4 MIC; for EC99, S-3769 strain, AMK / EC99, S-3769 strain, GM: Table 52, Test Example 2, 16 to 20 hours culture, OD595
Method in brief: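 EC99, the lowest test-compound concentration inhibiting growth by ≥99% (OD595), was measured with aminoglycoside AMK or GM held at ¼ MIC. Strain S-3769, a MexY-overexpressing clinical isolate, was cultured in CAMHB at 10^4 to 5 CFU/well for 16–20 h; compound range 0–800 μM.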

mexB (PA) strain = assay: Combinational effect with antibacterial agent against Pseudomonas aeruginosa (Test Examples 2 and 4): mexB (PA) strain with LVFX, TC or AZT at 1/4 MIC, EC99; assay type: cell-based; settings: for EC99, combinational effect with AZT, mexB (PA) / EC99, combinational effect with LVFX, mexB (PA) / EC99, combinational effect with TC, mexB (PA): mexB (PA) strain, Test Example 4; for EC99, combinational effect with AZT, mexB (PA) / EC99, mexB (PA), AZT: combined with AZT at 1/4 MIC; for EC99, combinational effect with LVFX, mexB (PA) / EC99, mexB (PA), LVFX: combined with LVFX at 1/4 MIC; for EC99, combinational effect with TC, mexB (PA) / EC99, mexB (PA), TC: combined with TC at 1/4 MIC; for EC99, mexB (PA), AZT / EC99, mexB (PA), LVFX / EC99, mexB (PA), TC: Table 52, Test Example 2, 16 to 20 hours culture, OD595
Method in brief: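 EC99 denotes the minimum test-compound concentration (range 0–800 μM) that suppresses ≥99% of growth, measured by OD595, when combined with ¼ MIC levofloxacin (LVFX), tetracycline or aztreonam. The efflux-pump mutant mexB (PA), expressing mainly MexAB-OprM, was inoculated at 10^4–5 CFU/well in CAMHB for 16–20 h.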

Compound	EC99, combinational effect with AMK, S-3769 strain (S-3769 strain)	EC99, combinational effect with GM, S-3769 strain (S-3769 strain)	EC99, combinational effect with AZT, mexB (PA) (mexB (PA) strain)	EC99, combinational effect with LVFX, mexB (PA) (mexB (PA) strain)	EC99, combinational effect with TC, mexB (PA) (mexB (PA) strain)	EC99, S-3769 strain, AMK (S-3769 strain)	EC99, S-3769 strain, GM (S-3769 strain)	EC99, mexB (PA), AZT (mexB (PA) strain)	EC99, mexB (PA), LVFX (mexB (PA) strain)	EC99, mexB (PA), TC (mexB (PA) strain)
CCSc1ccc(O)cc1CN1CCN(C(=O)[C@H](N)C2CCN(CCc3cc(Cl)ccc3-c3cc(O)ccc3F)CC2)CC1 [Example 621, (R)-2-amino-2-(1-(2-(4-chloro-2′-fluoro-5′-hydroxy-[1,1′-biphenyl]-2-yl)ethyl)piperidin-4-yl)-1-(4-(2-(ethylthio)-5-hydroxybenzyl)piperazin-1-yl)ethan-1-one]	S (EC99≤12.5 μM)	S (EC99≤12.5 μM)	S (EC99≤12.5 μM)	S (EC99≤12.5 μM)	S (EC99≤12.5 μM)	–	–	–	–	–
CCOc1cccc(F)c1CN1CCN(C(=O)[C@H](N)C2CCN(CCc3cscc3-c3ccccc3)CC2)CC1 [Example 540, Hydrobromide of (R)-2-amino-1-(4-(2-ethoxy-6-fluorobenzyl)piperazin-1-yl)-2-(1-(2-(4-phenylthiophen-3-yl)ethyl)piperidin-4-yl)ethan-1-one]	A (12.5 μM<EC99≤25 μM)	A (12.5 μM<EC99≤25 μM)	C (100 μM<EC99)	B (25 μM<EC99≤100 μM)	B (25 μM<EC99≤100 μM)	–	–	–	–	–
CCc1ccccc1CN1CCN(C(=O)[C@H](N)C2CCN(CCc3cc(Cl)ccc3-c3ccccc3)CC2)CC1 [Example 505, Hydrobromide of (R)-2-amino-2-(1-(2-(4-chloro-[1,1-biphenyl]-2-yl)ethyl)piperidin-4-yl)-1-(4-(2-ethylbenzyl)piperazin-1-yl)ethan-1-one]	B (25 μM<EC99≤100 μM)	B (25 μM<EC99≤100 μM)	B (25 μM<EC99≤100 μM)	B (25 μM<EC99≤100 μM)	B (25 μM<EC99≤100 μM)	–	–	–	–	–
CCOc1ccc(O)c(F)c1CN1CCN(C(=O)[C@H](N)C2CCN(CCc3ccccc3)CC2)CC1 [Example 94, hydrobromide of (R)-2-amino-1-(4-(6-ethoxy-2-fluoro-3-hydroxybenzyl)piperazin-1-yl)-2-(1-phenethylpiperidin-4-yl)ethan-1-one]	–	–	–	–	–	B (25 μM<EC99≤100 μM)	B (25 μM<EC99≤100 μM)	C (100 μM<EC99)	C (100 μM<EC99)	C (100 μM<EC99)
CCSc1ccc(O)cc1CN1CCN(C(=O)[C@H](N)C2CCN(CCc3cc(Cl)ccc3-c3ccccc3)CC2)CC1 [Example 589, (R)-2-amino-2-(1-(2-(4-chloro-[1,1′-biphenyl]-2-yl)ethyl)piperidin-4-yl)-1-(4-(2-(ethylthio)-5-hydroxybenzyl)piperazin-1-yl)ethan-1-one]	S (EC99≤12.5 μM)	S (EC99≤12.5 μM)	S (EC99≤12.5 μM)	S (EC99≤12.5 μM)	S (EC99≤12.5 μM)	–	–	–	–	–
CCOc1cccc(F)c1CN1CCN(C(=O)[C@H](N)C2CCN(CCc3c(F)cccc3-c3ccccc3)CC2)CC1 [Example 52, Hydrobromide of (R)-2-amino-1-(4-(2-ethoxy-6-fluorobenzyl)piperazin-1-yl)-2-(1-(2-(3-fluoro-[1,l′-biphenyl]-2-yl)ethyl)piperidin-4-yl)ethan-1-one]	–	–	–	–	–	A (12.5 μM<EC99≤25 μM)	S (EC99≤12.5 μM)	B (25 μM<EC99≤100 μM)	B (25 μM<EC99≤100 μM)	B (25 μM<EC99≤100 μM)
CCSc1cc(F)ccc1CN1CCN(C(=O)[C@H](N)C2CCN(CCc3cc(Cl)ccc3C3=CCNCC3)CC2)CC1 [Example 597, hydrochloride of (R)-2-amino-2-(1-(5-chloro-2-(1,2,3,6-tetrahydropyridin-4-yl)phenethyl)piperidin-4-yl)-1-(4-(2-(ethylthio)-4-fluorobenzyl)piperazin-1-yl)ethan-1-one]	S (EC99≤12.5 μM)	S (EC99≤12.5 μM)	B (25 μM<EC99≤100 μM)	S (EC99≤12.5 μM)	S (EC99≤12.5 μM)	–	–	–	–	–
CCOc1cccc(F)c1CN1CCN(C(=O)[C@H](N)C2CCN(CCc3cccc4ccccc34)CC2)CC1 [Example 42]	–	–	–	–	–	S (EC99≤12.5 μM)	S (EC99≤12.5 μM)	B (25 μM<EC99≤100 μM)	B (25 μM<EC99≤100 μM)	B (25 μM<EC99≤100 μM)
CSc1ccccc1CN1CCN(C(=O)[C@H](N)C2CCN(CCc3cc(Cl)ccc3-c3ccccc3N)CC2)CC1 [Example 556, Hydrobromide of (R)-2-amino-2-(1-(2-(2′-amino-4-chloro-[1,1-biphenyl]-2-yl)ethyl)piperidin-4-yl)-1-(4-(2-(methylthio)benzyl)piperazin-1-yl)ethan-1-one]	B (25 μM<EC99≤100 μM)	B (25 μM<EC99≤100 μM)	S (EC99≤12.5 μM)	S (EC99≤12.5 μM)	S (EC99≤12.5 μM)	–	–	–	–	–
CSc1ccccc1CN1CCN(C(=O)[C@H](N)C2CCN(CCc3cc(Cl)ccc3-c3cc(O)ccc3F)CC2)CC1 [Example 612, (R)-2-amino-2-(1-(2-(4-chloro-2′-fluoro-5′-hydroxy-[1,1′-biphenyl]-2-yl)ethyl)piperidin-4-yl)-1-(4-(2-(methylthio)benzyl)piperazin-1-yl)ethan-1-one]	S (EC99≤12.5 μM)	S (EC99≤12.5 μM)	S (EC99≤12.5 μM)	S (EC99≤12.5 μM)	S (EC99≤12.5 μM)	–	–	–	–	–
CCOc1cccc(F)c1CN1CCN(C(=O)[C@H](N)C2CCN(CCc3cc(Cl)ccc3-c3cc(N)cc(F)c3)CC2)CC1 [Example 558, Hydrobromide of (R)-2-amino-2-(1-(2-(3′-amino-4-chloro-5′-fluoro-[1,1-biphenyl]-2-yl)ethyl)piperidin-4-yl)-1-(4-(2-ethoxy-6-fluorobenzyl)piperazin-1-yl)ethan-1-one]	S (EC99≤12.5 μM)	S (EC99≤12.5 μM)	A (12.5 μM<EC99≤25 μM)	S (EC99≤12.5 μM)	A (12.5 μM<EC99≤25 μM)	–	–	–	–	–
CCOc1cccc(F)c1CN1CCN(C(=O)[C@H](N)C2CCN(CCc3cc(Cl)ccc3-c3cc(O)cc(Cl)c3)CC2)CC1 [Example 584, (R)-2-amino-2-(1-(2-(3′,4-dichloro-5′-hydroxy-[1,1′-biphenyl]-2-yl)ethyl)piperidin-4-yl)-1-(4-(2-ethoxy-6-fluorobenzyl)piperazin-1-yl)ethan-1-one]	S (EC99≤12.5 μM)	S (EC99≤12.5 μM)	S (EC99≤12.5 μM)	S (EC99≤12.5 μM)	S (EC99≤12.5 μM)	–	–	–	–	–
CCOc1cccc(F)c1CN1CCN(C(=O)[C@H](N)C2CCN(CCc3csc4ccccc34)CC2)CC1 [Example 150, Hydrobromide of (R)-2-amino-2-(1-(2-(benzo[b]thiophen-3-yl)ethyl)piperidin-4-yl)-1-(4-(2-ethoxy-6-fluorobenzyl)piperazin-1-yl)ethan-1-one]	–	–	–	–	–	S (EC99≤12.5 μM)	S (EC99≤12.5 μM)	B (25 μM<EC99≤100 μM)	C (100 μM<EC99)	B (25 μM<EC99≤100 μM)
CCSc1cc(F)ccc1CN1CCN(C(=O)[C@H](N)C2CCN(CCc3ccc(O)cc3-c3ccccc3)CC2)CC1 [Example 624, Hydrochloride of (R)-2-amino-1-(4-(2-(ethylthio)-4-fluorobenzyl)piperazin-1-yl)-2-(1-(2-(5-hydroxy-[1,1-biphenyl]-2-yl)ethyl)piperidin-4-yl)ethan-1-one]	B (25 μM<EC99≤100 μM)	B (25 μM<EC99≤100 μM)	C (100 μM<EC99)	B (25 μM<EC99≤100 μM)	B (25 μM<EC99≤100 μM)	–	–	–	–	–
Cc1ccsc1CN1CCN(C(=O)[C@H](N)C2CCN(CCc3cc(Cl)ccc3-c3ccccc3)CC2)CC1 [Example 516, Hydrobromide of (R)-2-amino-2-(1-(2-(4-chloro-[1,1-biphenyl]-2-yl)ethyl)piperidin-4-yl)-1-(4-((3-methylthiophen-2-yl)methyl)piperazin-1-yl)ethan-1-one]	B (25 μM<EC99≤100 μM)	B (25 μM<EC99≤100 μM)	B (25 μM<EC99≤100 μM)	B (25 μM<EC99≤100 μM)	B (25 μM<EC99≤100 μM)	–	–	–	–	–
